Values quoted from earlier work in paper PMC5988656, “Phase I studies of AZD1208, a proviral integration Moloney virus kinase inhibitor in solid and haematological cancers” (British Journal of Cancer, 2018).

Experiments:
[1] = test system: relapsed/refractory multiple myeloma (RRMM); conditions: in vivo; cited from earlier work
[2] = test system: refractory prostate cancer and relapsed/refractory non-Hodgkin lymphoma; parameters: method as in ClinicalTrials.gov, NCT00848601; conditions: ref ClinicalTrials.gov, NCT00848601; cited from earlier work

Row | Structure (SMILES) | DLT fatigue [1] [n] | DLT hypophosphatemia [1] [n] | DLT thrombocytopenia [1] [n] | DLT vasovagal syncope [1] [n] | DLTs [1] | Outcome of clinical development [2]
1 | C[C@@H]1C[C@H](N)C[C@H](c2ccncc2NC(=O)c2ccc(F)c(-c3c(F)cccc3F)n2)C1 [LGH447] | 2 | 1 | 4 | 1 | eight | –
2 | CN1CCC(CNc2ccc3ncc(-c4cccc(OC(F)(F)F)c4)n3n2)CC1 [SGI-1776] | – | – | – | – | – | discontinued because of QTc prolongation
